# Laboratory results published in patent US20140228303A1, “NOVEL SGLT INHIBITORS” (Panacea Biotec Ltd, priority 2011, published 2014).
# Tested on: C57BL/6J mice
# Test: Estimation of urinary glucose in C57BL/6J mice
# Type: in vivo, mouse
# Conditions: urine collected over 24 h
# Method: Estimation of Urinary Glucose in C57BL/6J Mice
# C57BL/6J mice were fasted 4 h before drug treatment. Fasted mice were weighed and randomized into different groups based on their body weight (n=6). At time T0 test compounds and standard compounds suspended in 0.25% CMC or PEG 400 formulation, were administered to respective groups and kept in metabolic cages (6 mice/cage) after dosing. Animals were fed after drug administration and urine was collected over a period of 24 h. Urinary volume was measured and urinary glucose was estimated using Merckotest Glucose Reagent (Merck Specialities Pvt. Ltd., India).
row,Molecule,UGE in mice (in mg/g of feed consumed) at 3 mpk
1,CCON=C(CC)c1ccc(Cc2cc([C@@H]3O[C@H](CO)[C@@H](O)[C@H](O)[C@H]3O)ccc2Cl)cc1 [Compound 17],64.5 mg/g of feed consumed
2,"1-(4-(2-chloro-5-((1S,2S,3S,4R,5S)-2,3,4-trihydroxy-1-(hydroxymethyl)-6,8-dioxabicyclo[3.2.1]octan-5-yl)benzyl)phenyl)ethanone O-methyl oxime [Compound 4]",76.2 mg/g of feed consumed
